Experimental data: patent US4087613A, “1,3,5- Or 1,3,6-naphthalenetriyltris(sulfonylimino)aryl acids and salts” (American Cyanamid Company, priority 1977, dated 1978)
Structures can show the parent of a compound that is named as a salt.

Columns and labels:
activated human C1 = target: T1, activated human C1 (Homo sapiens, UniProt P09871); assay: Test, Code 026 (C1 inhibitor): protection of human C2 from activated human C1 and C4; format: biochemical; details: serial two-fold dilution assay; higher well number indicates higher activity
T1 construct: fluid-phase human C2 substrate in presence of C4
T1 sequence (P09871 16-688): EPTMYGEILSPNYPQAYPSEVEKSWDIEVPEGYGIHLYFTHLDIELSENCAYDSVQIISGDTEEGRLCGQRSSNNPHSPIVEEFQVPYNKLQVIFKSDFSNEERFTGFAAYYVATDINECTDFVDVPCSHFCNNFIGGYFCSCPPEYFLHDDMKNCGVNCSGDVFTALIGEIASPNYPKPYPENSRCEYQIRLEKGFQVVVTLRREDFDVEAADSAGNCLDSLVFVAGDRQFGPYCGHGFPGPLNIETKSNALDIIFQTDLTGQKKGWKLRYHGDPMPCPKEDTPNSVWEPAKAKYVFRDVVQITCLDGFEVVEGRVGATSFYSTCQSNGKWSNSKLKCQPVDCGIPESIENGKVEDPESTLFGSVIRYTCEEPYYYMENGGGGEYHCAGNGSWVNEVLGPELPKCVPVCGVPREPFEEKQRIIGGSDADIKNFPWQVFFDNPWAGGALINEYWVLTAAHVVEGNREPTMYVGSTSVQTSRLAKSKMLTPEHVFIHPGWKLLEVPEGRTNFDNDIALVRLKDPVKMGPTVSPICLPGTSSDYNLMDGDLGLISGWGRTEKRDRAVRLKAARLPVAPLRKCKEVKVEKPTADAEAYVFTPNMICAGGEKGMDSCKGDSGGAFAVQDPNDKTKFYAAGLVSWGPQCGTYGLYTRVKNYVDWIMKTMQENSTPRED
T1 sequence (P00736 18-705 partner): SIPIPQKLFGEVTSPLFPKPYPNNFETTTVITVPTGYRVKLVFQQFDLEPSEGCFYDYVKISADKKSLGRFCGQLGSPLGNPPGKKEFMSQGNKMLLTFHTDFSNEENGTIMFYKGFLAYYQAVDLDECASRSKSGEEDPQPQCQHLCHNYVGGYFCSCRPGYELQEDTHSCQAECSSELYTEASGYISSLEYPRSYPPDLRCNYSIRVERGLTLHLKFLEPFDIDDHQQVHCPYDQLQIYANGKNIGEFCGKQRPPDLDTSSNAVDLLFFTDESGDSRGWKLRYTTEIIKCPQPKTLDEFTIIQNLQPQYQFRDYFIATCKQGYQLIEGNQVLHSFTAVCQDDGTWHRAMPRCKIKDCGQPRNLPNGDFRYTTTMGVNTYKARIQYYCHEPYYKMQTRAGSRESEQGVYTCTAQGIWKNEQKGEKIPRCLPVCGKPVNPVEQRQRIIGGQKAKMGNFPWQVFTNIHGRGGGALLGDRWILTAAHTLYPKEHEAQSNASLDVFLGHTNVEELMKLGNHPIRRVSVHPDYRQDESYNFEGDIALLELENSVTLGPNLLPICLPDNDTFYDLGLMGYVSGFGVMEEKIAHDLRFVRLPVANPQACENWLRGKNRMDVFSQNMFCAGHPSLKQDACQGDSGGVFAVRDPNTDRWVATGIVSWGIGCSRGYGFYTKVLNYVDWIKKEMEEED
T1 sequence (P02745 23-245 partner): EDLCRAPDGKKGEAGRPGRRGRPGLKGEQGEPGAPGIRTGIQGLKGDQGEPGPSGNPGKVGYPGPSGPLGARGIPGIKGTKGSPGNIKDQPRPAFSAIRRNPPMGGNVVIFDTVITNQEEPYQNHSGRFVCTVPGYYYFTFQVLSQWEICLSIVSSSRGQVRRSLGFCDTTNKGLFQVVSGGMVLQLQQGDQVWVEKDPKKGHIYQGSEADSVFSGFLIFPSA
T1 sequence (P02746 28-253 partner): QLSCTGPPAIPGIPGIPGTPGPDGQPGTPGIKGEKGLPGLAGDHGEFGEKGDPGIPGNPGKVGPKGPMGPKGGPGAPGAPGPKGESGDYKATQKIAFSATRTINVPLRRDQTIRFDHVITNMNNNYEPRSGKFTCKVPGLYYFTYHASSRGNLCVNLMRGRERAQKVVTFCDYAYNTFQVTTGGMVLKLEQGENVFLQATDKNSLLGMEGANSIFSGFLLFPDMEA
T1 sequence (P02747 29-245 partner): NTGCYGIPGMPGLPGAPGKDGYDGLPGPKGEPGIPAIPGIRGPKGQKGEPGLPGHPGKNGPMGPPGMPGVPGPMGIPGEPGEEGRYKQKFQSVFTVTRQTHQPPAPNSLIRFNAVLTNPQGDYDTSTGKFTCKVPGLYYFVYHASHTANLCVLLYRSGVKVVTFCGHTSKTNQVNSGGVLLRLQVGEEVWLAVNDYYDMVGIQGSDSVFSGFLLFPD
From the text: (§1) An active inhibitor protects C2 from C1 and C4; (ii) Test, Code 035 (C3-C9 inhibitor) -- This test determines the ability of the late components of human complement (C3-C9) to lyse EAC 142 in the presence of appropriate dilutions of the test compound. An active inhibitor protects EAC 142 from lysis by human C3-C9; (iii) Test, Code 036 (C-Shunt inhibitor) -- In this test human erythrocytes rendered fragile are lysed in autologous serum via the shunt pathway activated by cobra venom factor in the presence of appropriate dilutions of the test compound. Inhibition of the shunt pathway results in failure of lysis; (iv) Forssman Vasculitis Test -- Here, the well known complement dependent lesion, Forssman vasculitis, is produced in guinea pigs by intradermal injection of rabbit anti-Forssman antiserum. The lesion is measured in terms of diameter, edema and hemorrhage and the extent to which a combined index of these is inhibited by prior intraperitoneal injection of the test compound at 200 mg/kg is then reported, unless otherwise stated; (v) Forssman Shock Test -- Lethal shock is produced in guinea pigs by an i.v. injection of anti-Forssman antiserum and the harmonic mean death time of treated guinea pigs is compared with that of simultaneous controls; (vi) Complement Level Reduction Test -- In this test, the above dosed guinea pigs, or others, are bled for serum and the complement level is determined in undiluted serum by the capillary tube method of U.S. Pat. No. 3,876,376 and compared to undosed control guinea pigs; and (vii) Cap 50 Test -- Here, appropriate amounts of the test compound are added to a pool of guinea pig serum in vitro, after which the undiluted serum capillary tube assay referred to above is run. The concentration of compound inhibiting 50% is reported.
(§2) **Activity in wells a serial dilution assay. Higher well number indicates
(§3) higher activity. The serial dilutions are two-fold.

[1] = tested on: late components of human complement (C3-C9); assay: Test, Code 035 (C3-C9 inhibitor): lysis of EAC 142 by late components of human complement; format: biochemical; parameters: key: Negative; details: serial two-fold dilution assay; higher well number indicates higher activity
From the text: as §1, §2, §3

shunt pathway = assay: Test, Code 036 (C-Shunt inhibitor): lysis of human erythrocytes via the shunt pathway activated by cobra venom factor; format: biochemical; parameters: key: Negative; details: serial two-fold dilution assay; higher well number indicates higher activity
From the text: as §1, §2, §3

whole complement = assay: Complement Level Reduction Test: whole complement in serum of dosed guinea pigs, capillary tube assay; format: in vivo; details: 200 mg/kg
From the text: as §1
With reference to Table I, guinea pigs weighing about 300 g were dosed intravenously (i.v.) or intraperitoneally (i.p.) with 200 mg/kg of the test compound dissolved in saline and adjusted to pH 7-8. […] The serum was tested for whole complement using the capillary tube assay. Percent inhibition was calculated by comparison with simultaneous controls. The results appear in Table I together with results of tests, code 026, 035, 036, Cap 50, % inhibition and Forssman shock.

[2] = tested on: hereditary angioneurotic edema; details: The New England Journal of Medicine, 286, 808-812 (1972); cited from earlier work
complement system = details: literature report; cited from earlier work

Molecule	C1 026 Wells (activated human C1)	C-Late 035 Wells [1]	Shunt Inhibition 036 Wells (shunt pathway)	In Vivo Activity (Guinea Pig) % Inhibition, Intraperitoneal, 30 minutes (whole complement) [%]	In Vivo Activity (Guinea Pig) % Inhibition, Intraperitoneal, 60 minutes (whole complement) [%]	In Vivo Activity (Guinea Pig) % Inhibition, Intraperitoneal, 120 minutes (whole complement) [%]	use in the treatment of hereditary angioneurotic edema [2]	anticomplementary / complement inhibiting effect (complement system)
CN(c1cc(C(=O)O)cc(C(=O)O)c1)S(=O)(=O)c1ccc2c(S(=O)(=O)N(C)c3cc(C(=O)O)cc(C(=O)O)c3)cc(S(=O)(=O)N(C)c3cc(C(=O)O)cc(C(=O)O)c3)cc2c1 [5,5',5"-[1,3,6-Naphthalenetriyltris(sulfonylmethylimino)]triisophthalic acid hexasodium salt]	+3 wells	N	N	–	–	–	–	–
O=C([O-])c1cc(NS(=O)(=O)c2ccc3c(S(=O)(=O)Nc4cc(C(=O)[O-])cc(C(=O)[O-])c4)cc(S(=O)(=O)Nc4cc(C(=O)[O-])cc(C(=O)[O-])c4)cc3c2)cc(C(=O)[O-])c1.[Na+].[Na+].[Na+].[Na+].[Na+].[Na+] [5,5',5"-[1,3,6-Naphthalenetriyltris(sulfonylimino)]triisophthalic acid hexasodium salt]	–	N	–	-67	-79	-84	–	–
NC[C@H]1CC[C@H](C(=O)O)CC1 [tranexamic acid]	–	–	–	–	–	–	used with success	–
8-(3-benzamido-4-methylbenzamido)naphthalene-1,3,5-trisulfonic acid [Suramin]	–	–	–	–	–	–	used with success	competitive inhibitor of the complement system
heparin	–	–	–	–	–	–	–	anticomplementary effect
O=C(O)c1cc(NS(=O)(=O)c2ccc3c(S(=O)(=O)Nc4ccc(O)c(C(=O)O)c4)cc(S(=O)(=O)Nc4ccc(O)c(C(=O)O)c4)cc3c2)ccc1O [3,3',3"-[1,3,6-Naphthalenetriyltris(sulfonylimino)]tris[6-hydroxybenzoic acid]]	+1 wells	N	N	–	–	–	–	–
O=C(O)c1cc(NS(=O)(=O)c2ccc3c(S(=O)(=O)Nc4cc(C(=O)O)c(O)c(C(=O)O)c4)cc(S(=O)(=O)Nc4cc(C(=O)O)c(O)c(C(=O)O)c4)cc3c2)cc(C(=O)O)c1O [5,5',5"-[1,3,6-Naphthalenetriyltris(sulfonylimino)]-tris[2-hydroxyisophthalic acid]]	+5 wells	+1 wells	+4 wells	-69	-59	-58	–	–
O=C([O-])c1cc(NS(=O)(=O)c2ccc3c(S(=O)(=O)Nc4cc(C(=O)[O-])c(C(=O)[O-])c(C(=O)[O-])c4)cc(S(=O)(=O)Nc4cc(C(=O)[O-])c(C(=O)[O-])c(C(=O)[O-])c4)cc3c2)cc(C(=O)[O-])c1C(=O)[O-].[Na+].[Na+].[Na+].[Na+].[Na+].[Na+].[Na+].[Na+].[Na+] [5,5',5"-[1,3,6-Naphthalenetriyltris(sulfonylimino)]tri-1,2,3-benzenetricarboxylic acid nonasodium salt]	+8 wells	–	–	-63	-71	-71	–	–
O=C([O-])c1cccc(NS(=O)(=O)c2ccc3c(S(=O)(=O)Nc4cccc(C(=O)[O-])c4)cc(S(=O)(=O)Nc4cccc(C(=O)[O-])c4)cc3c2)c1.[Na+].[Na+].[Na+] [3,3',3"-[1,3,6-Naphthalenetriyltris(sulfonylimino)]tribenzoic acid trisodium salt]	+3 wells	N	N	–	–	–	–	–
O=C([O-])c1ccc(NS(=O)(=O)c2ccc3c(S(=O)(=O)Nc4ccc(C(=O)[O-])cc4)cc(S(=O)(=O)Nc4ccc(C(=O)[O-])cc4)cc3c2)cc1.[Na+].[Na+].[Na+] [4,4',4"-[1,3,6-Naphthalenetriyltris(sulfonylimino)]tribenzoic acid trisodium salt]	–	N	N	–	–	–	–	–
NCCCCCC(=O)O [epsilon-aminocaproic acid]	–	–	–	–	–	–	used with success	–
O=C(O)c1cc(NS(=O)(=O)c2ccc3c(S(=O)(=O)Nc4cc(C(=O)O)cc(C(=O)O)c4)cc(S(=O)(=O)Nc4cc(C(=O)O)cc(C(=O)O)c4)cc3c2)cc(C(=O)O)c1 [5,5',5"-[1,3,6-Naphthalenetriyltris(sulfonyliminol)]triisophthalic acid]	+6 wells	N	+2 wells	-84	-88	-96	–	–
Nc1ccc2cc(S(=O)(=O)O)cc(O)c2c1N=Nc1ccc(NC(=O)Nc2ccc(N=Nc3c(N)ccc4cc(S(=O)(=O)O)cc(O)c34)c(S(=O)(=O)O)c2)cc1S(=O)(=O)O [chlorazol fast pink, 3,3'-ureylenebis-[6-(2-amino-8-hydroxy-6-sulfo-1-naphthylazo)]benzenesulfonic acid, tetrasodium salt]	–	–	–	–	–	–	–	anticomplementary effect
